{
  "source": "patent US20100137449A1",
  "about": "“SUBSTITUTED 1,3-CYCLOPENTADIONE MULTI-TARGET PROTEIN KINASE MODULATORS OF CANCER, ANGIOGENESIS AND THE INFLAMMATORY PATHWAYS ASSOCIATED THEREWITH” (METAPROTEOMICS, LLC, priority 2007, published 2010)",
  "assay_in_all_cases": "KinaseProfiler Assay",
  "key": {"Blk(m)": {"target": "Blk(m) (Mus musculus, UniProt P16277)"}, "EphA3(h)": {"target": "T1, EphA3(h) (Homo sapiens, UniProt P29320)", "T1 sequence (P29320 21-983)": "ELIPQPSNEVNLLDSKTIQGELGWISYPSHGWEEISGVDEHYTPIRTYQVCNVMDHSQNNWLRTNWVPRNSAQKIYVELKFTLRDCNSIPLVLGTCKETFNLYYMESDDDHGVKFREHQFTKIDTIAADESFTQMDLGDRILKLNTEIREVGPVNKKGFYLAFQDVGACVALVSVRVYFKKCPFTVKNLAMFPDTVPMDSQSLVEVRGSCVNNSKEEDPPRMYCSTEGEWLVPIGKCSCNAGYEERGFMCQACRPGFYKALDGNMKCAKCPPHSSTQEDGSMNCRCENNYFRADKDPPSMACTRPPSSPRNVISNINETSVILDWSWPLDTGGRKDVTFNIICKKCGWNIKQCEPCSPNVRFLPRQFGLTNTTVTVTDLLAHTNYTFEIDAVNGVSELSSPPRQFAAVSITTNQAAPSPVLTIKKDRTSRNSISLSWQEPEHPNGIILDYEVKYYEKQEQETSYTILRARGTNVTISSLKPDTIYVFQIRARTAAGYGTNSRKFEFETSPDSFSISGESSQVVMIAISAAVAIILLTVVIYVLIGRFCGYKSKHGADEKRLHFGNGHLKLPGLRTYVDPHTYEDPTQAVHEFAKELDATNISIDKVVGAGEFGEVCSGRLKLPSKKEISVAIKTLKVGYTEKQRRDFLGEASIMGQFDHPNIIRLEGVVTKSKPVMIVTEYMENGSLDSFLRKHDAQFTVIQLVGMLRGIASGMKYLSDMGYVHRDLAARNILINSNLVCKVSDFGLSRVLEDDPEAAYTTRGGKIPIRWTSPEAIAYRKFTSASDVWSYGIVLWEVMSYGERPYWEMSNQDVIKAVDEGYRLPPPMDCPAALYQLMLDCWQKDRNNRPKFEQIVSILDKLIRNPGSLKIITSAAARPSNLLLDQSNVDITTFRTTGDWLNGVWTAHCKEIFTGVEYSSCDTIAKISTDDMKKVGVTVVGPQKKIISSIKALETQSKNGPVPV"}, "FGFR4(h)": {"target": "FGFR4(h) (Homo sapiens, UniProt P22455)", "sequence (P22455 22-802)": "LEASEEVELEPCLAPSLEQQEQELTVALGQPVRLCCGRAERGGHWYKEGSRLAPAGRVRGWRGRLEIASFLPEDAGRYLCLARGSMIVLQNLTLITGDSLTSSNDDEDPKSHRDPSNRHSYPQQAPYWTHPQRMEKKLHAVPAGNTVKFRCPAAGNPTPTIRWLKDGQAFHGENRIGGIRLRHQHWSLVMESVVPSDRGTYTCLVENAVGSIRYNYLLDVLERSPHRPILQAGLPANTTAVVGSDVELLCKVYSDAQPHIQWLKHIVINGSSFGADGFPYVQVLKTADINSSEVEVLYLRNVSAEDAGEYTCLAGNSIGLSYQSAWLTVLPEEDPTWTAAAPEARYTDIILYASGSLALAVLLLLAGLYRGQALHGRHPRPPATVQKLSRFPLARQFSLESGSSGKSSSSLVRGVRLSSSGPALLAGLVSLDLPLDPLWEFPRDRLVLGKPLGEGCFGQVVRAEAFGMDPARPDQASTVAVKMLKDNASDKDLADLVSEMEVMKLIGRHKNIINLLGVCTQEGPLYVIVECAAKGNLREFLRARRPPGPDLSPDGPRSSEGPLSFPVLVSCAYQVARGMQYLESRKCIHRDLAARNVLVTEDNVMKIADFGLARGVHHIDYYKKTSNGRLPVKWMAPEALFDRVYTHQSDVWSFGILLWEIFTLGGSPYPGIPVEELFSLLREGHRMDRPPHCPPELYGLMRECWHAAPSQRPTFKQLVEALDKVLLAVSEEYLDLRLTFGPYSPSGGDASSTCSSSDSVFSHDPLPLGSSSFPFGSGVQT"}, "Flt1(h)": {"target": "Flt1(h) (Homo sapiens, UniProt P17948)", "sequence (P17948 27-1338)": "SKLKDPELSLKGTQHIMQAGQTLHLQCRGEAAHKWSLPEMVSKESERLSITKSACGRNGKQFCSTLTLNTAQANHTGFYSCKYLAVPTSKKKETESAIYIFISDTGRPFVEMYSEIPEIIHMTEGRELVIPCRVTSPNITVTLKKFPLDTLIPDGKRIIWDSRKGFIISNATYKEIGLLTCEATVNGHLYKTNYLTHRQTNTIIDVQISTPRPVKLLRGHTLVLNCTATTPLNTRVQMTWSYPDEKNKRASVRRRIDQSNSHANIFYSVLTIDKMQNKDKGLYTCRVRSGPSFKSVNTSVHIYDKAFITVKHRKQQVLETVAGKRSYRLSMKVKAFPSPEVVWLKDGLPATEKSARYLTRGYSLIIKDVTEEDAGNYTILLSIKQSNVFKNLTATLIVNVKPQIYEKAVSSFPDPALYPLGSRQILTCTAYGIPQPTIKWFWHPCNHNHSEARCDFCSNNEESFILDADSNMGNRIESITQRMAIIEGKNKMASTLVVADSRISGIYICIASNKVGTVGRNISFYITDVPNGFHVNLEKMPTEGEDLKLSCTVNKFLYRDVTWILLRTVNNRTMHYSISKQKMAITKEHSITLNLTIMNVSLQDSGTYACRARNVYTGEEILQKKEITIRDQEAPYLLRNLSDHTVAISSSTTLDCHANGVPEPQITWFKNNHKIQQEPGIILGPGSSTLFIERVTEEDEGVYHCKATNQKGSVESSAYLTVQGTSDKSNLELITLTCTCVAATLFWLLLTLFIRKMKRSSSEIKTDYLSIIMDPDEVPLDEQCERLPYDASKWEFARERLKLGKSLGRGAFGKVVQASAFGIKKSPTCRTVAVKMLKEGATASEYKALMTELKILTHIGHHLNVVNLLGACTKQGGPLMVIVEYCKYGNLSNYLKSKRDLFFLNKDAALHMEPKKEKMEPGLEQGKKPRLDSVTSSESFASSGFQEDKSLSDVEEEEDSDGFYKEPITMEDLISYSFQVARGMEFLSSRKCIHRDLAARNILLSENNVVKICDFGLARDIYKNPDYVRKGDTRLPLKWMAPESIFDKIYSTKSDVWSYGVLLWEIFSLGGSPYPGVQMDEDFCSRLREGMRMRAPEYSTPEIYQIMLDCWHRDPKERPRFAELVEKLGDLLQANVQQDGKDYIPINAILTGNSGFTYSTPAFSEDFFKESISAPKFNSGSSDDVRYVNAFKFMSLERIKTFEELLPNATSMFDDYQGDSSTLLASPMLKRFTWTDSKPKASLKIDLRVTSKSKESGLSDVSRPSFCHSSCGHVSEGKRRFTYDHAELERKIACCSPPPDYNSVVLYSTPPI"}, "PI 3-Kinaseβ(h)": {"target": "PI 3-Kinaseβ(h) (Homo sapiens, UniProt P42338)", "sequence (P42338 whole entry)": "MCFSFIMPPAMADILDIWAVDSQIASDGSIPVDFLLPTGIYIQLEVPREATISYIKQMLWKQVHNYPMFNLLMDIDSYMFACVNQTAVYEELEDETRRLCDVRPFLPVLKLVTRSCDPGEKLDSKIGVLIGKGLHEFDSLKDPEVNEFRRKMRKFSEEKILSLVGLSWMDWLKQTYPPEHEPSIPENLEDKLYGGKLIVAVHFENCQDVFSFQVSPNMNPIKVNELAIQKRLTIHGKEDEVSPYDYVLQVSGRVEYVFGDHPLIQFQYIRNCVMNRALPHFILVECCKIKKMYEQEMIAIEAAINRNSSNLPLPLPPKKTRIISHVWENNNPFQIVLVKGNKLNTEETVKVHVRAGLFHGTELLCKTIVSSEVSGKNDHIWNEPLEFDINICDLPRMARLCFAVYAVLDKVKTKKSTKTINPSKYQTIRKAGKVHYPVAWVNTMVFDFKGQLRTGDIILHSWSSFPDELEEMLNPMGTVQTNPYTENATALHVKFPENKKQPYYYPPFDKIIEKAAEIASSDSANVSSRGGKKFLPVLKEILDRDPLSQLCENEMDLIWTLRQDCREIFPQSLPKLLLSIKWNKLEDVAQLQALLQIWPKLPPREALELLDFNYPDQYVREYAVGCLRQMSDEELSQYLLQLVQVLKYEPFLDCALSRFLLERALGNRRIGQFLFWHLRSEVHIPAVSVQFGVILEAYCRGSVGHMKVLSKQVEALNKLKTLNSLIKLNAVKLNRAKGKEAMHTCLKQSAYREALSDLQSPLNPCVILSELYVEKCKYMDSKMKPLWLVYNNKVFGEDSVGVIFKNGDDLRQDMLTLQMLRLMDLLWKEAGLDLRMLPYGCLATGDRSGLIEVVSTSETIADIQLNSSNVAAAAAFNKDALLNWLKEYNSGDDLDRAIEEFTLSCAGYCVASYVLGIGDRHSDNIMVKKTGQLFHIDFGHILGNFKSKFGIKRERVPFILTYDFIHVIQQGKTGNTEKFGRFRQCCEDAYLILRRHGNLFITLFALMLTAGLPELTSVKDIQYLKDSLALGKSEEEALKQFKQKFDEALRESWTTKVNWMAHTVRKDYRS", "sequence (P27986 whole entry partner)": "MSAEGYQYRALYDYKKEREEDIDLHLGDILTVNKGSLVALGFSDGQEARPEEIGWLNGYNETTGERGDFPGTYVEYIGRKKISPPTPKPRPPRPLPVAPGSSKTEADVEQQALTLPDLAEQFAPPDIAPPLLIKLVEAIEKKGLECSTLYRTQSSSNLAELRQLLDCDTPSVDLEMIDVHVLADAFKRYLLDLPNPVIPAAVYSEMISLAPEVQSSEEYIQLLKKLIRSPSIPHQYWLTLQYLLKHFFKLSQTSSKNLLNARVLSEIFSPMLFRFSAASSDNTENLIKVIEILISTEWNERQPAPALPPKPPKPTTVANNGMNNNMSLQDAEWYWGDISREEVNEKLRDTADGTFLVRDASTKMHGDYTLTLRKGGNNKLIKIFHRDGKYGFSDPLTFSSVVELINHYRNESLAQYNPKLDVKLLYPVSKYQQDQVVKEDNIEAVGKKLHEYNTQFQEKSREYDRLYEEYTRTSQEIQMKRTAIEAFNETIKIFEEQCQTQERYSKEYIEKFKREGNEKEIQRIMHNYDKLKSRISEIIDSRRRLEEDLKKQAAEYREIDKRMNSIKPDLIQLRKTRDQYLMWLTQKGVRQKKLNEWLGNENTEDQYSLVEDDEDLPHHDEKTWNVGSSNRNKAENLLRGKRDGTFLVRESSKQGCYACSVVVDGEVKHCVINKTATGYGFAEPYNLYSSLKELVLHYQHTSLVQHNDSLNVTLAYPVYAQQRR"}, "Ret(V804L)(h)": {"target": "Ret(V804L)(h) (Homo sapiens, UniProt P07949, V804L)", "sequence (P07949 29-1114 V804L)": "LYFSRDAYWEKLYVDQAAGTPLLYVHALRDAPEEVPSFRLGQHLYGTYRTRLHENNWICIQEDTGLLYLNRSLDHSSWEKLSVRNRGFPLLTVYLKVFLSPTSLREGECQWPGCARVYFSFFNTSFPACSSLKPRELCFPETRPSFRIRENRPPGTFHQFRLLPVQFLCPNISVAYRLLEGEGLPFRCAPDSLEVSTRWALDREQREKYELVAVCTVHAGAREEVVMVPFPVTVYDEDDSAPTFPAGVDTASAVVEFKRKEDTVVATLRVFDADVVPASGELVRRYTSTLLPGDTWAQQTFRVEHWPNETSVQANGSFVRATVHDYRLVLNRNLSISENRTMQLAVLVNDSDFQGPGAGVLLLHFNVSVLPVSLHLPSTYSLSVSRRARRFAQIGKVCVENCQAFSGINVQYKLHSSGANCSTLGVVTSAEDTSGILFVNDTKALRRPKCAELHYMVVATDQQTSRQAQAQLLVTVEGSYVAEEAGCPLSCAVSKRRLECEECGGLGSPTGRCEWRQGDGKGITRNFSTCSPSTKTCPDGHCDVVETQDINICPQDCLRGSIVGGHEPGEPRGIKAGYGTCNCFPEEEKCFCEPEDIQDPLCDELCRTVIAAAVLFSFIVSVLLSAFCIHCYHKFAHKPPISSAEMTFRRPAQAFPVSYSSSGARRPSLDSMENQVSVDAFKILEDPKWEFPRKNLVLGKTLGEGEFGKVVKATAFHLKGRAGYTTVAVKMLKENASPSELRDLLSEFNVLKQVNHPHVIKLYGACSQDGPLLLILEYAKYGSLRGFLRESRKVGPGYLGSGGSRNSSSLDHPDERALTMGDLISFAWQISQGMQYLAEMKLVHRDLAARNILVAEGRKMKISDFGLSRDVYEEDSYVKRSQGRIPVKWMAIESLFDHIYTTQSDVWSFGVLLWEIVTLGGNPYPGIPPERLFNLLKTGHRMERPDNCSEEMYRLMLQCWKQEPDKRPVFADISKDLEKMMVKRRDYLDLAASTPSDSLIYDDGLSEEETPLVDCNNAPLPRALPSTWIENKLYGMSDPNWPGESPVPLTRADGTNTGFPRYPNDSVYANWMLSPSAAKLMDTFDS"}, "TLK2(h)": {"target": "TLK2(h) (Homo sapiens, UniProt Q86UE8)"}, "TSSK2(h)": {"target": "T2, TSSK2(h) (Homo sapiens, UniProt Q96PF2)", "T2 sequence (Q96PF2 1-358)": "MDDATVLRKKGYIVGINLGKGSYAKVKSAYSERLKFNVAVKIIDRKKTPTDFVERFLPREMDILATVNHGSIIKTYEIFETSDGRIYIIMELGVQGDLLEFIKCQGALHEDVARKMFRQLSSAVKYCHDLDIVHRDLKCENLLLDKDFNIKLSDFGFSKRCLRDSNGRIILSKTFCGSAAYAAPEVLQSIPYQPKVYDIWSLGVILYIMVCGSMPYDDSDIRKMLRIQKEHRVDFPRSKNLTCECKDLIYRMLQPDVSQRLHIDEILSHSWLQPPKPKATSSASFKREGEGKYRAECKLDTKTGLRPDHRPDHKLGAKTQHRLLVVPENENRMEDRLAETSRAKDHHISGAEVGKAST"}},
  "data": [
    {"smiles": "CC(C)CCC(=O)[C@]1(O)C(O)=C(C(=O)C(C)C)C(=O)[C@H]1CCC(C)C", "note": "[TH2, tetrahydroiso-cohumulone]", "values": [
      {"measurement": "kinase inhibition", "setting": "Blk(m); 1 μg/ml", "result": "108% of control"},
      {"measurement": "kinase inhibition", "setting": "Blk(m); 5 μg/ml", "result": "115% of control"},
      {"measurement": "kinase inhibition", "setting": "Blk(m); 25 μg/ml", "result": "96% of control"},
      {"measurement": "kinase inhibition", "setting": "Blk(m); 50 μg/ml", "result": "72% of control"},
      {"measurement": "kinase inhibition", "setting": "Blk(m); 100 μg/ml", "result": "53% of control"},
      {"measurement": "kinase inhibition", "setting": "EphA3(h); 1 μg/ml", "result": "93% of control"},
      {"measurement": "kinase inhibition", "setting": "EphA3(h); 5 μg/ml", "result": "91% of control"},
      {"measurement": "kinase inhibition", "setting": "EphA3(h); 25 μg/ml", "result": "98% of control"},
      {"measurement": "kinase inhibition", "setting": "EphA3(h); 50 μg/ml", "result": "87% of control"},
      {"measurement": "kinase inhibition", "setting": "EphA3(h); 100 μg/ml", "result": "84% of control"},
      {"measurement": "kinase inhibition", "setting": "FGFR4(h); 1 μg/ml", "result": "89% of control"},
      {"measurement": "kinase inhibition", "setting": "FGFR4(h); 5 μg/ml", "result": "81% of control"},
      {"measurement": "kinase inhibition", "setting": "FGFR4(h); 25 μg/ml", "result": "55% of control"},
      {"measurement": "kinase inhibition", "setting": "FGFR4(h); 50 μg/ml", "result": "64% of control"},
      {"measurement": "kinase inhibition", "setting": "FGFR4(h); 100 μg/ml", "result": "55% of control"},
      {"measurement": "kinase inhibition", "setting": "Flt1(h); 1 μg/ml", "result": "102% of control"},
      {"measurement": "kinase inhibition", "setting": "Flt1(h); 5 μg/ml", "result": "97% of control"},
      {"measurement": "kinase inhibition", "setting": "Flt1(h); 25 μg/ml", "result": "103% of control"},
      {"measurement": "kinase inhibition", "setting": "Flt1(h); 50 μg/ml", "result": "102% of control"},
      {"measurement": "kinase inhibition", "setting": "Flt1(h); 100 μg/ml", "result": "98% of control"},
      {"measurement": "kinase inhibition", "setting": "PI 3-Kinaseβ(h); 1 μg/ml", "result": "99% of control"},
      {"measurement": "kinase inhibition", "setting": "PI 3-Kinaseβ(h); 5 μg/ml", "result": "95% of control"},
      {"measurement": "kinase inhibition", "setting": "PI 3-Kinaseβ(h); 25 μg/ml", "result": "75% of control"},
      {"measurement": "kinase inhibition", "setting": "PI 3-Kinaseβ(h); 50 μg/ml", "result": "47% of control"},
      {"measurement": "kinase inhibition", "setting": "PI 3-Kinaseβ(h); 100 μg/ml", "result": "28% of control"},
      {"measurement": "kinase inhibition", "setting": "Ret(V804L)(h); 1 μg/ml", "result": "110% of control"},
      {"measurement": "kinase inhibition", "setting": "Ret(V804L)(h); 5 μg/ml", "result": "103% of control"},
      {"measurement": "kinase inhibition", "setting": "Ret(V804L)(h); 25 μg/ml", "result": "91% of control"},
      {"measurement": "kinase inhibition", "setting": "Ret(V804L)(h); 50 μg/ml", "result": "81% of control"},
      {"measurement": "kinase inhibition", "setting": "Ret(V804L)(h); 100 μg/ml", "result": "60% of control"},
      {"measurement": "kinase inhibition", "setting": "TLK2(h); 1 μg/ml", "result": "98% of control"},
      {"measurement": "kinase inhibition", "setting": "TLK2(h); 5 μg/ml", "result": "89% of control"},
      {"measurement": "kinase inhibition", "setting": "TLK2(h); 25 μg/ml", "result": "106% of control"},
      {"measurement": "kinase inhibition", "setting": "TLK2(h); 50 μg/ml", "result": "94% of control"},
      {"measurement": "kinase inhibition", "setting": "TLK2(h); 100 μg/ml", "result": "98% of control"},
      {"measurement": "kinase inhibition", "setting": "TSSK2(h); 1 μg/ml", "result": "106% of control"},
      {"measurement": "kinase inhibition", "setting": "TSSK2(h); 5 μg/ml", "result": "99% of control"},
      {"measurement": "kinase inhibition", "setting": "TSSK2(h); 25 μg/ml", "result": "100% of control"},
      {"measurement": "kinase inhibition", "setting": "TSSK2(h); 50 μg/ml", "result": "97% of control"},
      {"measurement": "kinase inhibition", "setting": "TSSK2(h); 100 μg/ml", "result": "87% of control"}
    ]}
  ]
}
